IC50 data for six molecules are collected here from US7713966B2, “Heterobicyclic metalloprotease inhibitors” (Alantos Pharmaceuticals Holding, Inc., priority 2006, dated 2010).

The IC50 is the concentration at which inhibition is half-maximal.

Format in all cases: biochemical
The target in experiment [1] is T1, catalytic domain of MMP-13 enzyme (Homo sapiens, UniProt P45452).
T1 construct: catalytic domain of MMP-13 enzyme (produced by Alantos or commercially available from Invitek (Berlin), Cat. # 30100812); purchased Invitek (Berlin) 30100812
The experiment is described as follows: Assay for determining MMP-13 inhibition (fluorescent substrate). As to conditions: read-out: MMP-13 Activity (IC50 MMP-13), Group. Here is the method:
The typical assay for MMP-13 activity is carried out in assay buffer comprised of 50 mM Tris, pH 7.5, 150 mM NaCl, 5 mM CaCl2 and 0.05% Brij-35. Different concentrations of tested compounds are prepared in assay buffer in 50 μL aliquots. 10 μL of a 50 nM stock solution of catalytic domain of MMP-13 enzyme (produced by Alantos or commercially available from Invitek (Berlin), Cat. # 30100812) is added to the compound solution. The mixture of enzyme and compound in assay buffer is thoroughly mixed and incubated for 10 min at room temperature. Upon the completion of incubation, the assay is started by addition of 40 μl of a 12.5 μM stock solution of MMP-13 fluorescent substrate (Calbiochem, Cat. No. 444235). The time-dependent increase in fluorescence is measured at the 320 nm excitation and 390 nm emission by automatic plate multireader. The IC50 values are calculated from the initial reaction rates.

Experiment [2] concerns the target T2, activated MMP-8 enzyme (Homo sapiens, UniProt P22894).
T2 construct: purchased Calbiochem 444229
Description: Assay for determining MMP-8 inhibition (OmniMMP fluorescent substrate). To be noted: read-out: MMP-8 Activity (IC50 MMP-8), Group. As to the method:
The typical assay for MMP-8 activity is carried out in assay buffer comprised of 50 mM Tris, pH 7.5, 150 mM NaCl, 5 mM CaCl2 and 0.05% Brij-35. Different concentrations of tested compounds are prepared in assay buffer in 50 μL aliquots. 10 μL of a 50 nM stock solution of activated MMP-8 enzyme (Calbiochem, Cat. No. 444229) is added to the compound solution. The mixture of enzyme and compound in assay buffer is thoroughly mixed and incubated for 10 min at 37° C. Upon the completion of incubation, the assay is started by addition of 40 μL of a 10 μM stock solution of OmniMMP fluorescent substrate (Biomol, Cat. No. P-126). The time-dependent increase in fluorescence is measured at the 320 nm excitation and 390 nm emission by an automatic plate multireader at 37° C. The IC50 values are calculated from the initial reaction rates.

For experiment [3], the target named is T3, catalytic domain of MMP-3 enzyme (Homo sapiens, UniProt P08254).
T3 construct: catalytic domain of MMP-3 enzyme (Biomol, Cat. No. SE-109); purchased Biomol SE-109
Description: Assay for determining MMP-3 inhibition (NFF-3 fluorescent substrate). As to conditions: read-out: MMP-3 Activity (IC50 MMP-3), Group. As to the method:
The typical assay for MMP-3 activity is carried out in assay buffer comprised of 50 mM MES, pH 6.0, 10 mM CaCl2 and 0.05% Brij-35. Different concentrations of tested compounds are prepared in assay buffer in 50 μL aliquots. 10 μL of a 100 nM stock solution of the catalytic domain of MMP-3 enzyme (Biomol, Cat. No. SE-109) is added to the compound solution. The mixture of enzyme and compound in assay buffer is thoroughly mixed and incubated for 10 min at room temperature. Upon the completion of incubation, the assay is started by addition of 40 μL of a 12.5 μM stock solution of NFF-3 fluorescent substrate (Calbiochem, Cat. No. 480455). The time-dependent increase in fluorescence is measured at the 330 nm excitation and 390 nm emission by an automatic plate multireader. The IC50 values are calculated from the initial reaction rates.

Each structure is given as a SMILES string. A value given as a limit tells only on which side of the number the result lay.

T2 sequence (P22894 101-467): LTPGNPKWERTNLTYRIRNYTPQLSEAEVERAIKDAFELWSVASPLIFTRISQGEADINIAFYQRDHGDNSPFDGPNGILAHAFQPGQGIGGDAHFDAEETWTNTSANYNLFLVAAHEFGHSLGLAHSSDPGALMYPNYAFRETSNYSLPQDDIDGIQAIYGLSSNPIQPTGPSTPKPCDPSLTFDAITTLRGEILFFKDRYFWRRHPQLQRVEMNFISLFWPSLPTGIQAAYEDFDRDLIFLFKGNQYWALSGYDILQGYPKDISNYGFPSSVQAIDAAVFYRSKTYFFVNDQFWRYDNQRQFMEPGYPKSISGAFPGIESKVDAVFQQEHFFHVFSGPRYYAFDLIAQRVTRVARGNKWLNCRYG
T3 sequence (P08254 100-272 limits assumed): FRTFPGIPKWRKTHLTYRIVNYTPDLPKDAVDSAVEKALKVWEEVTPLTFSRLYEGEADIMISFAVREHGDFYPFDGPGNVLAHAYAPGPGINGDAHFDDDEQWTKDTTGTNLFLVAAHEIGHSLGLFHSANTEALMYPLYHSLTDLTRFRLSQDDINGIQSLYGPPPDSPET

Regarding `N#Cc1ccc2nc(C(=O)NCc3ccc4c(c3)NC(=O)CO4)[nH]c(=O)c2c1` [Example 9], the figures for the IC50 in experiment [1], in experiment [2] and in experiment [3] were under 100 nM, under 250 nM and under 250 nM, respectively.

In the case of `Cc1c(CC(=O)O)sc2nc(C(=O)NCc3ccc4c(c3)CN(c3c(N)c(=O)c3=O)CC4)[nH]c(=O)c12` [4/13], the half-maximal inhibitory concentration (IC50) in experiment [1] is under 100 nM; in experiment [2] it was under 250 nM; in experiment [3] it was under 250 nM.

`O=C1COc2ccc(CNC(=O)c3nc4cccc(F)c4c(=O)[nH]3)cc2N1` [2/74]: the IC50 was under 100 nM in experiment [1], under 250 nM in experiment [2] and under 250 nM in experiment [3].

As for `O=C1COc2ccc(CNC(=O)c3nc4ccsc4c(=O)[nH]3)cc2N1` [2/20], the IC50 was under 100 nM in experiment [1], 250 to 20000 nM in experiment [2] and 250 to 20000 nM in experiment [3].

For the molecule `O=C1COc2ccc(CNC(=O)c3nc4ccc(F)cc4c(=O)[nH]3)cc2N1` [2/23], the IC50 is under 100 nM in experiment [1], under 250 nM in experiment [2] and under 250 nM in experiment [3].

`CC(C)(C)OC(=O)NCc1ccc2nc(C(=O)NCc3ccc4c(c3)NC(=O)CO4)[nH]c(=O)c2c1` [Example 14]: the IC50 is under 100 nM in experiment [1], under 250 nM in experiment [2] and 250 to 20000 nM in experiment [3].
